Values quoted from earlier work in patent US20230066413A1, “ST[…]” (priority 2021, published 2023).

Tested on: antibiotic-resistant bacteria
Conditions: stated in background, no experiment described

Question: Which bactericidal concentration does the source give for `O=c1c(O)c(-c2ccc(O)c(O)c2)oc2cc(O)cc(O)c12` [Quercetin] here?
Answer: 5,000 parts per million
